Laboratory results from patent US20260109699A1, “AZOLE DERIVATIVES AS SHP2 INHIBITORS” (IRBM S.P.A., priority 2022, published 2026).

Legend:
[1] = molecular target: T1, SHP-2 enzyme (Met1-Leu525), SHP2wt (Homo sapiens, UniProt Q06124); assay: SHP2 inhibition enzymatic assay; type: biochemical; settings: 0.5 nM SHP-2 activated by 500 nM IRS1 peptide, 75 μM DiFMUP substrate
T1 construct: synthetized by Origene, Met1-Leu525, cat #TP750155; purchased Origene TP750155
T1 sequence (Q06124 1-525): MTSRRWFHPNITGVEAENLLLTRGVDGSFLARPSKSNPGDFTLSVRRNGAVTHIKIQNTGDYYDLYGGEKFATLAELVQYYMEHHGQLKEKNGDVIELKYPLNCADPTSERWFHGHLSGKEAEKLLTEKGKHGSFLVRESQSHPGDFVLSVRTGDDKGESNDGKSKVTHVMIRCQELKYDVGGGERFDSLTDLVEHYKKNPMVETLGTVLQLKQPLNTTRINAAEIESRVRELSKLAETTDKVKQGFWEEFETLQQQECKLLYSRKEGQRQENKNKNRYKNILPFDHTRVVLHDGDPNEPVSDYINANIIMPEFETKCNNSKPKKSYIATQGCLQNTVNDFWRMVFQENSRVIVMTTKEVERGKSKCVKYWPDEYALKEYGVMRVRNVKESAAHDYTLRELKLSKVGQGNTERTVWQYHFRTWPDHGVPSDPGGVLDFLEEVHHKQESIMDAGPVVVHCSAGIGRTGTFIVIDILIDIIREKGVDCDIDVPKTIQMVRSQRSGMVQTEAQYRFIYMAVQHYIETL
Procedure: The assay was performed as described in YP Chen et al, Nature (535) 2016. Assay volume of 20 μL/well was assembled in 384 well black polystyrene low-binding microplates (Greiner), using the following buffer: 60 mM HEPES pH 7.2, 75 mM NaCl, 75 mM KCl, 1 mM EDTA pH 8, 0.05% tween-20, 5 mM DTT. The SHP-2 enzyme (synthetized by Origene, Met1-Leu525, cat #TP750155) was used at a final concentration of 0.5 nM. The enzyme was activated by 500 nM IRS1 peptide (sequence: H2N-LN(pY)IDLDLV(dPEG8)LST(pY)ASINFQK-amide; Wang et al., iScience 25,104009, Apr. 15, 2022, https://doi.org/10.1016/j.isci.2022.104009) and incubated with 75 μM DiFMUP (Sigma) as substrate.
Briefly, DMSO serially diluted testing compounds were transferred to the bottom of the assay plate. SHP2 was then added together with the IRS1 peptide 30 min post incubation, the DiFMUP substrate was added to the reaction and incubated 30 min at rt. Finally 5 μL of 160 μM bpV (potassium bisperoxo[1,10-phenanthroline]oxovanadate [V], Sigma) were added to stop and quench the reaction. The fluorescence was detected by a microplate reader (Envision, PerkinElmer) according to the DiFMUP excitation and emission wavelength. The lower the fluorescence the higher the SHP2 inhibition.
The activity of each compound dilution was calculated as percentage of inhibition between vehicle (DMSO, 0% inhibition) and no enzyme (100% inhibition). The percentage inhibition is fitted against the compound dilutions with a four-parameter logistic regression. The inflection point (i.e. the concentration at which half-maximal inhibition is achieved) is the IC50.
Legend: A indicates IC50 less or equal to 0.05 μM; B indicates IC50 greater than 0.05 μM and lower or equal to 0.3 μM.

[2] = test system: phospho-ERK1/2 (Thr202/Tyr204); assay: Phospho-ERK cellular assay; type: cell-based; settings: Homo sapiens; KYSE-520 cells, 2 h at 37° C, TR-FRET; read-out: pERK IC50
Procedure: ERK phosphorylation was detected using the “Advanced phospho-ERK1/2 (Thr202/Tyr204)” TR-FRET kit (Cisbio, Cat #64AERPEG/H), following the manufacturer reagents and instructions.
Briefly, 20.000/well KYSE-520 cells (DSMZ ACC 371) were plated in 6 μL RPMI-1640 (Invitrogen) growth medium, into 384 white low-volume high base TC microplates (Greiner). After an overnight incubation, cells were treated with DMSO serial diluted compounds and incubated for 2 h at 37° C. After incubation, 2 μL/well of 4×Lysis Buffer (Cisbio 64KL1FDF), were added and incubated with cells for 30 min on gentle shaking. Finally, lysates were added with 2 μL/well of Eu cryptate (donor) and D2 (acceptor) conjugated antibodies (as provided by the Cisbio kit #64AERPEG/H) diluted 1:100 in Detection Buffer (as provided by the Cisbio kit #64AERPEG/H). Plates were then sealed and incubated at rt in the dark. After an overnight incubation, the TR-FRET signal was detected on a suitable reader (Envision, PerkinElmer).
The lower the TR-FRET signal the higher the higher the SHP2 inhibition in cells.
The activity of each compound dilution was calculated as percentage between vehicle DMSO treated cells and no cells, 0% inhibition and 100% inhibition respectively. The percentage activity is fitted against the compound dilutions with a four-parameter logistic regression. The inflection point (i.e. the concentration at which half-maximal inhibition is achieved) is the IC50.
Legend: “+” indicates IC50 equal or higher than 0.5 μM; “++” indicates IC50 less than 0.5 μM and higher or equal to 0.1 μM; “+++” indicates IC50 less than 0.1 μM.

Row | Structure (SMILES) | IC50 [1] | IC50 [2]
1 | Cc1nc(N2CCC3(CC2)Cn2ncc(F)c2[C@H]3N)cc(=O)n1-c1cccc(Cl)c1Cl (atropisomer, axis not shown) [Example 1, (S)-6-(4′-amino-3′-fluoro-4′H,6′H-spiro[piperidine-4,5′-pyrrolo[1,2-b]pyrazol]-1-yl)-3-(2,3-dichlorophenyl)-2-methylpyrimidin-4(3H)-one] | ≤ 50 nM | 100 to 500 nM
2 | Cc1nc(N2CCC3(CC2)Cn2nccc2[C@H]3N)cnc1Sc1ccnc(C)c1F [Example 4, (S)-1-(5-((3-fluoro-2-methylpyridin-4-yl)thio)-6-methylpyrazin-2-yl)-4′H,6′H-spiro[piperidine-4,5′-pyrrolo[1,2-b]pyrazol]-4′-amine] | ≤ 50 nM | 100 to 500 nM
3 | Cn1c(N2CCC3(CC2)Cn2nccc2[C@H]3N)ncc(-c2cccc(F)c2F)c1=O [Example 5, (S)-2-(4′-amino-4′H,6′H-spiro[piperidine-4,5′-pyrrolo[1,2-b]pyrazol]-1-yl)-5-(2,3-difluorophenyl)-3-methylpyrimidin-4(3H)-one] | 50 to 300 nM | > 500 nM
4 | Cc1nc(N2CCC3(CC2)Cn2nccc2[C@H]3N)cnc1Sc1cccc(Cl)c1Cl [Example 6, (S)-1-(5-((2,3-dichlorophenyl)thio)-6-methylpyrazin-2-yl)-4′H,6′H-spiro[piperidine-4,5′-pyrrolo[1,2-b]pyrazol]-4′-amine] | ≤ 50 nM | 100 to 500 nM
5 | N[C@@H]1c2ccnn2CC12CCN(c1cnc(Oc3ccc(F)cc3)cn1)CC2 [Example 7, (S)-1-(5-(4-fluorophenoxy)pyrazin-2-yl)-4′H,6′H-spiro[piperidine-4,5′-pyrrolo[1,2-b]pyrazol]-4′-amine] | ≤ 50 nM | < 100 nM
6 | N[C@@H]1c2ccnn2CC12CCN(c1cnc3nc(-c4cccc(F)c4F)ccc3n1)CC2 [Example 8, (S)-1-(6-(2,3-difluorophenyl)pyrido[2,3-b]pyrazin-2-yl)-4′H,6′H-spiro[piperidine-4,5′-pyrrolo[1,2-b]pyrazol]-4′-amine] | ≤ 50 nM | > 500 nM
7 | N[C@@H]1c2ccnn2CC12CCN(c1cnc3nc(-c4cccc(Cl)c4Cl)ccc3n1)CC2 [Example 9, (S)-1-(6-(2,3-dichlorophenyl)pyrido[2,3-b]pyrazin-2-yl)-4′H,6′H-spiro[piperidine-4,5′-pyrrolo[1,2-b]pyrazol]-4′-amine] | ≤ 50 nM | > 500 nM
8 | Cn1c(N2CCC3(CC2)Cn2nccc2[C@H]3N)ccc(-c2cccc(Cl)c2Cl)c1=O [Example 11, (S)-6-(4′-amino-4′H,6′H-spiro[piperidine-4,5′-pyrrolo[1,2-b]pyrazol]-1-yl)-3-(2,3-dichlorophenyl)-1-methylpyridin-2(1H)-one] | 50 to 300 nM | > 500 nM
9 | Cc1cccc(-c2ncc3c(N4CCC5(CC4)Cn4nccc4[C@H]5N)nccn23)c1F [Example 12, (S)-1-(3-(2-fluoro-3-methylphenyl)imidazo[1,5-a]pyrazin-8-yl)-4′H,6′H-spiro[piperidine-4,5′-pyrrolo[1,2-b]pyrazol]-4′-amine] | ≤ 50 nM | 100 to 500 nM

Results, then the compound that gave them:

Row | IC50 [1] | IC50 [2] | Structure (SMILES)
10 | ≤ 50 nM | < 100 nM | N[C@@H]1c2ccnn2CC12CCN(c1cnc(Sc3ccc(F)cc3)cn1)CC2 [Example 13, (S)-1-(5-((4-fluorophenyl)thio)pyrazin-2-yl)-4′H,6′H-spiro[piperidine-4,5′-pyrrolo[1,2-b]pyrazol]-4′-amine]
11 | ≤ 50 nM | 100 to 500 nM | N[C@@H]1c2ccnn2CC12CCN(c1nccn3c(-c4cccc(F)c4Cl)ncc13)CC2 [Example 14, (S)-1-(3-(2-chloro-3-fluorophenyl)imidazo[1,5-a]pyrazin-8-yl)-4′H,6′H-spiro[piperidine-4,5′-pyrrolo[1,2-b]pyrazol]-4′-amine]
12 | ≤ 50 nM | > 500 nM | Cc1c(Cl)cccc1-c1ncc2c(N3CCC4(CC3)Cn3nccc3[C@H]4N)nccn12 [Example 15, (S)-1-(3-(3-chloro-2-methylphenyl)imidazo[1,5-a]pyrazin-8-yl)-4′H,6′H-spiro[piperidine-4,5′-pyrrolo[1,2-b]pyrazol]-4′-amine]
13 | 50 to 300 nM | > 500 nM | Cc1ccc(F)c(-c2ncc3c(N4CCC5(CC4)Cn4nccc4[C@H]5N)nccn23)c1Cl [Example 16, (S)-1-(3-(2-chloro-6-fluoro-3-methylphenyl)imidazo[1,5-a]pyrazin-8-yl)-4′H,6′H-spiro[piperidine-4,5′-pyrrolo[1,2-b]pyrazol]-4′-amine]
14 | ≤ 50 nM | 100 to 500 nM | Cc1nc(Sc2cccc(Cl)c2Cl)cnc1N1CCC2(CC1)Cn1nccc1[C@H]2N [Example 17, (S)-1-(5-((2,3-dichlorophenyl)thio)-3-methylpyrazin-2-yl)-4′H,6′H-spiro[piperidine-4,5′-pyrrolo[1,2-b]pyrazol]-4′-amine]
15 | ≤ 50 nM | 100 to 500 nM | N[C@@H]1c2ccnn2CC12CCN(c1cnc(Sc3ccc(OC(F)(F)F)cc3)cn1)CC2 [Example 18, (S)-1-(5-((4-(trifluoromethoxy)phenyl)thio)pyrazin-2-yl)-4′H,6′H-spiro[piperidine-4,5′-pyrrolo[1,2-b]pyrazol]-4′-amine]
16 | ≤ 50 nM | 100 to 500 nM | N[C@@H]1c2ccnn2CC12CCN(c1cnc(Sc3ccc(C(F)(F)F)cc3)cn1)CC2 [Example 19, (S)-1-(5-((4-(trifluoromethyl)phenyl)thio)pyrazin-2-yl)-4′H,6′H-spiro[piperidine-4,5′-pyrrolo[1,2-b]pyrazol]-4′-amine]
17 | ≤ 50 nM | < 100 nM | N[C@@H]1c2ccnn2CC12CCN(c1cnc(Sc3cccc(Cl)c3)cn1)CC2 [Example 20, (S)-1-(5-((3-chlorophenyl)thio)pyrazin-2-yl)-4′H,6′H-spiro[piperidine-4,5′-pyrrolo[1,2-b]pyrazol]-4′-amine]
18 | ≤ 50 nM | < 100 nM | N[C@@H]1c2ccnn2CC12CCN(c1cnc(Sc3ccc(Cl)cc3Cl)cn1)CC2 [Example 22, (S)-1-(5-((2,4-dichlorophenyl)thio)pyrazin-2-yl)-4′H,6′H-spiro[piperidine-4,5′-pyrrolo[1,2-b]pyrazol]-4′-amine]
19 | ≤ 50 nM | 100 to 500 nM | N[C@@H]1c2ccnn2CC12CCN(c1cnc(Sc3ccc(Cl)c(Cl)c3)cn1)CC2 [Example 23, (S)-1-(5-((3,4-dichlorophenyl)thio)pyrazin-2-yl)-4′H,6′H-spiro[piperidine-4,5′-pyrrolo[1,2-b]pyrazol]-4′-amine]
20 | ≤ 50 nM | < 100 nM | N[C@@H]1c2ccnn2CC12CCN(c1cnc(Sc3ccccc3)cn1)CC2 [Example 24, (S)-1-(5-(phenylthio)pyrazin-2-yl)-4′H,6′H-spiro[piperidine-4,5′-pyrrolo[1,2-b]pyrazol]-4′-amine]
